How the values were obtained:
[1] = target: T1, Notch2 (Homo sapiens, UniProt Q04721); assay: Notch2 activity in PBMCs from healthy donors by EMSA; type: cell-based; conditions: TPA-stimulated PBMCs, 0.2 μM gliotoxin, 4 hours
T1 construct: endogenous in cells; host or cells: PBMCs from healthy donors, with or without TPA
Procedure: FIG. 4: Gliotoxin induces apoptosis in unstimulated as well as in TPA-stimulated B-CLL cells within 4 hours. Normal PBMCs (peripheral blood mononuclear cells) from healthy donors show a markedly lower Notch2 activity. Although gliotoxin inhibits Notch2 also in normal, TPA-stimulated cells, the gliotoxin-caused apoptosis rate is markedly lower in normal cells as compared to B-CLL cells. Non-stimulated and TPA stimulated PBMC's from healthy donors (HD) are less sensitive to 0.2 μM Gliotoxin despite a basal Notch2 activity. PBMC's and CLL cells were incubated with 0.2 μM Gliotoxin with or without TPA for 4 hours and the Notch2 activity as well as the percentage of apoptotic cells were determined by EMSA and FACS analysis, respectively.
After 4 hours of gliotoxin treatment, massive signs of the starting apoptosis (AnnexinV+) could already be recognized in B-CLL cells. This effect was increased by TPA (a phorbol ester which stimulates the activation of lymphocytes).

[2] = test system: K562 (CML); assay: Apoptosis FACS in leukaemia cell line K562; type: cell-based; conditions: K562, 0.2 μM gliotoxin, 24 h
Procedure: FIG. 7: (A) The apoptotic activity of gliotoxin on further B-CLL patient samples (CLL4-CLL8) is illustrated. The (non-Notch2-associated) leukaemia cell lines (or the leukaemia cell lines not characterised by ligand-independent Notch2 fragments) Jurkat (T-ALL), SH1 (hairy cell carcinoma), RL-7 and K562 (CML) are resistant to a treatment with 0.2 μM (corresponding to 60 ng/ml) of gliotoxin. Cells were incubated for 24 h+/−gliotoxin, and the percentage of apoptotic cells (probidium-iodide+/annexinV+) was determined by means of FACS analysis. In none of the 4 non-Notch2-associated cell lines indicated, the application of 0.2 μM of gliotoxin led to a significant induction of apoptosis within 24 hours. The cytotoxic effect of Gliotoxin correlates with the Notch2 activity in leukemias. (B) Corresponding EMSA showing the activity of Notch2 in B-CLL cells and in leukemic cell lines (Jurkat, SH1, RL7, and K562).

[3] = test system: Meljuso-Bcl-2 (+) (Bcl-2 over expressing melanoma cell line); assay: Cell count analysis Meljuso-Bcl-2 (+); type: cell-based, human
Procedure: FIG. 8 a-d: Effects of gliotoxin on cell counts of various human tumour cell lines in vitro. Cell counts of a) hepatocellular carcinoma cell lines HepG2, Huh7, SNU398, Hep3b, HeLa (cervix) and the cholangiocarcinoma cell line NEC as well as b) the pancreatic cancer cell line Panc-1 and the melanoma cell lines d) MelJuso, Meljuso-Bcl-2 (+) and 607B after 72 h treatment with 200 nM gliotoxin; c-d) Cell count dose range experiments with c) pancreatic carcinoma cell lines Panc-1 and MiaPaCa as well as melanoma cell lines MelJuso, 518A2 and 607B using 25, 50 100 and 200 nM gliotoxin for 24 h. All data are given relative to control ±standard deviation.
Tumour cells were seeded at a density of 10,000 cells/well in 24-well plates. 24 h after seeding, medium containing gliotoxin was added to yield desired concentrations of gliotoxin. At time points indicated, culture medium was removed by suction. Adherent cells were washed with DPBS (Cambrex, Verviers, Belgium) and incubated with trypsin (Gibco) at 37° C. Detached cells were transferred to test tubes containing Cellpack isotonic fluid (Sysmex Europe, Bornbarch, Germany) and counted with a Coulter Z1 electronic cell counter (Beckman Coulter, Bedford, UK).

[4] = test system: 518A2 (melanoma); assay: Apoptosis flow cytometry (Annexin V / 7-AAD) 518A2; type: cell-based, human; conditions: 518A2, 200 nM gliotoxin, 24 h
Procedure: (§1) FIG. 10 a-b: Effects of gliotoxin on Notch2 regulation and apoptosis. The melanoma cell line 518A2 (A) and the pancreatic cancer cell line Panc-1 (B) were treated with 200 nM gliotoxin or vehicle control for 24 h Notch2 activity was analysed by band shift assay. Apoptosis was measured as annexin V and 7-AAD double positivity by FACS. Data are given as percentage of apoptotic cells ±standard deviation.
(§2) Tumour cells were seeded at a density of 50,000 cells/well in 6 well plates. 24 h after seeding, medium containing gliotoxin was added to yield desired concentrations of gliotoxin. After further 24 h cells were harvested, counted and washed twice with PBS. Then, 100,000 cells were resuspended in 100 μl binding buffer and stained with Annexin V-PE and 7-AAD (both Becton Dickinson, N.J., USA) according to manufacturer's recommendations. After 20 minutes incubation time at room temperature in the dark, 400 μl binding buffer was added and immediately analyzed on a FACScalibur flow cytometer using CellQuest software (both Becton Dickinson, N.J., USA)

[5] = test system: Panc-1 (pancreatic cancer); assay: Apoptosis flow cytometry (Annexin V / 7-AAD) Panc-1; type: cell-based, human; conditions: Panc-1, 200 nM gliotoxin, 24 h
Procedure: as §1, §2

[6] = test system: Notch2; assay: Notch2 activity band shift assay in Panc-1; type: cell-based, human; conditions: Panc-1, 200 nM gliotoxin, 24 h
Procedure: as §1
500,000 cells were seeded on 12 cm^2 plates for 24 h and then treated with 200 nM gliotoxin. At the time points as indicated cells were harvested and immediately frozen at −80° C. The band shift assay was performed as described for B-CLL.

[7] = test system: HCT-15; conditions: cited from earlier work

T1 sequence (Q04721 1697-2471 limits assumed): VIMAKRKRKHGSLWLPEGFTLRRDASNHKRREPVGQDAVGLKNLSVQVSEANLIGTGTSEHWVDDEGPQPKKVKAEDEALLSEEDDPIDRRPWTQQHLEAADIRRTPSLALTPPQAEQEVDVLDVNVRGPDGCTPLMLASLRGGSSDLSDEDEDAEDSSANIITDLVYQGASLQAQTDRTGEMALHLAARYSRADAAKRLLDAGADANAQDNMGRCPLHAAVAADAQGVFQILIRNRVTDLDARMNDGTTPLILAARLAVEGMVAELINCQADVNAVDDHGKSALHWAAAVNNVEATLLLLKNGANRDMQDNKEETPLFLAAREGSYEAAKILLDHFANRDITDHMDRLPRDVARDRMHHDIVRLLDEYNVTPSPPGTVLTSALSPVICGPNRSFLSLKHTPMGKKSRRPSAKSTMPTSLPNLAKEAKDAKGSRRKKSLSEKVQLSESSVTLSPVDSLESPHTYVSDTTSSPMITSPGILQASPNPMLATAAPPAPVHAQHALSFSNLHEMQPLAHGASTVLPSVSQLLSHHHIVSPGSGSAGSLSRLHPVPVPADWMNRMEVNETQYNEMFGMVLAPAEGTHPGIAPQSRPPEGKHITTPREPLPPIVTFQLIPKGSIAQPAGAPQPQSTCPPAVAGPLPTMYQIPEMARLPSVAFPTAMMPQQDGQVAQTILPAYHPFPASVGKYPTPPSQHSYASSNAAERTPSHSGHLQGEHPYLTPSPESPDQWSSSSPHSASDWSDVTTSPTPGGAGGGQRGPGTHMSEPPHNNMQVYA

SMILES: CN1C(=O)[C@]23CC4=CC=C[C@H](O)[C@H]4N2C(=O)[C@@]1(CO)SS3 [gliotoxin, [3R-(3α,5aβ,6β,10aα)]-2,3,5a,6-tetrahydro-6-hydroxy-3-(hydroxymethyl)-2-methyl-10H-3,10a-epi-dithiopyrazino[1,2-a]indol-1,4-dion]
- physiologic Notch2 activity (EMSA) [1]: marked reduction
- induction of apoptosis (probidium-iodide+/annexinV+) [2]: resistant
- response ([3]; MelJuso +BCL2, 0.2 μM (60 ng/ml)): ~100%
- cell count decrease ([3]; Meljuso-Bcl-2 (+), 200 nM gliotoxin, 72 h): 94%
- apoptotic cells (annexin V and 7-AAD double positive) [4]: 92%
- apoptotic cells (annexin V and 7-AAD double positive) [5]: 47%
- Notch2 activity (band shift assay) [6]: only partly inhibited
- IC50 with regard to cell viability [7]: 0.039 µg/mL
